Reference: patent publication US20260184738A1 (priority 2023, published 2026)
pEC50, pIC50: −log10 of the molar value. Read-outs that look alike come from different tables or passages of the source.

Assays:
DENV2 = assay: Antiviral activity against DENV2; format: cell-based; conditions: Dengue Virus 2
DENV4 = assay: Antiviral activity against DENV4; format: cell-based; conditions: Dengue Virus 4
SARS-CoV-2 (Omicron) = assay: microbe, parasite or virus in culture; format: cell-based; conditions: Severe acute respiratory syndrome coronavirus 2, Calu-3, read-out: IC50, SARS-CoV-2 (Omicron) (Calu3) #1
EBOV (VP30, Huh) = assay: microbe, parasite or virus in culture; format: cell-based, Ebola Virus; conditions: for pEC50: read-out: EC50, EBOV (VP30, Huh)
in vitro [1] = conditions: human
SARS-CoV-2 (WA-1) [2] = assay: microbe, parasite or virus in culture; format: cell-based; conditions: Severe acute respiratory syndrome coronavirus 2, A549, read-out: IC50, SARS-CoV-2 (WA-1) #1
SARS-CoV-2 (WA-1) [3] = assay: microbe, parasite or virus in culture; format: cell-based; conditions: Severe acute respiratory syndrome coronavirus 2, A549, read-out: IC50, SARS-CoV-2 (WA-1) #2
SARS-CoV-2 (A549-hACE2) = assay: microbe, parasite or virus in culture; format: cell-based
CHIKV = assay: Antiviral activity against CHIKV; format: cell-based; conditions: Chikungunya virus
VEEV = assay: microbe, parasite or virus in culture; format: cell-based; conditions: Venezuelan equine encephalitis virus, read-out: EC50, VEEV
OC43 = assay: Antiviral activity against OC43 (Huh 7.5 IFITM3); format: cell-based, human coronavirus; conditions: Betacoronavirus 1, OC43, Huh7.5
in vitro [4] = assay: in vitro
in vitro [5] = assay: in vitro; remark: listed apart in the source
[6] = Cytotoxicity (CC50) alongside DENV2 assay
[7] = Cytotoxicity (CC50) alongside DENV4 assay
[8] = Cytotoxicity (CC50) alongside SARS-CoV-2 WA-1 assay, lab #1; conditions: human, A549 cells
[9] = Cytotoxicity (CC50) alongside SARS-CoV-2 WA-1 assay, lab #2; conditions: human, A549 cells
[10] = Cytotoxicity (CC50) alongside SARS-CoV-2 (A549-hACE2) assay; conditions: human, A549-hACE2 cells
[11] = Zaire ebolavirus, Huh-7, read-out: IC50, EBOV (VP30, Huh)

Nc1nc(N)c2sc3ncn([C@@H]4O[C@H](CO)C(O)C4O)c3c2n1 (stereo partly drawn) [CEM-007, 1-[(5,7-diaminoimidazo-[4′,5′:4,5]thieno[3,2-d]pyrimidin-3-yl)]-β-D-ribofuranose-2,3,5-Triol]
pIC50 (DENV2): 4.35 | pIC50 (DENV4): 4.19 | pIC50 (SARS-CoV-2 (Omicron)): 4.25 | pIC50 (EBOV (VP30, Huh); [11]): 4.82 | pEC50 (EBOV (VP30, Huh); Zaire ebolavirus): 4.39 | pIC50 (EBOV (VP30, Huh); read-out: IC50, EBOV (VP30, Huh)): 4.93 | CC50 (in vitro [1]): > 100 µM

CC1(F)C(O)[C@@H](CO)O[C@H]1n1cnc2sc3c(N)nc(N)nc3c21 (stereo in doubt) [CEM-024, 2′-deoxy-2′-fluoro-2′-C-methyl-1′-[(5,7-diaminoimidazo-[4′,5′:4,5]thieno[3,2-d]pyrimidin-3-yl)]-β-D-ribofuranose]
pIC50 (EBOV (VP30, Huh); [11]): 4.51 | CC50 (in vitro [1]): 11 µM

CC(C)OC(=O)[C@H](C)N[P@@](=O)(Oc1ccccc1)OC1[C@@H](CO[P@@](=O)(N[C@@H](C)C(=O)OC(C)C)Oc2ccccc2)O[C@@H](n2cnc3sc4c(N)nc(N)nc4c32)C1(C)F (stereo partly shown) [CEM-042]
pIC50 (DENV2): 5.46 | IC90 (DENV2): 6.8 µM | pIC50 (DENV4): 5.12 | IC90 (DENV4): 25 µM | pIC50 (SARS-CoV-2 (Omicron)): 5.13 | pIC50 (SARS-CoV-2 (WA-1) [2]): 5.45 | pIC50 (SARS-CoV-2 (WA-1) [3]): 5.23 | pEC50 (SARS-CoV-2 (A549-hACE2); Severe acute respiratory syndrome coronavirus 2, read-out: EC50, SARS-CoV-2 (A549-hACE2)): 5.23 | EC90 (SARS-CoV-2 (A549-hACE2); Severe acute respiratory syndrome coronavirus 2, read-out: EC90, SARS-CoV-2 (A549-hACE2)): 6.5 µM | pIC50 (EBOV (VP30, Huh); [11]): 4.94 | pEC50 (CHIKV): 4.61 | pEC50 (VEEV): 4.06 | pEC50 (OC43): 5.82 | CC50 (in vitro [4]): > 100 µM | CC50 (in vitro [5]): > 100 µM | CC50 [6]: > 100 µM | CC50 [7]: > 100 µM | CC50 [8]: > 100 µM | CC50 [9]: > 100 µM | CC50 [10]: > 100 µM

CCC(CC)COC(=O)[C@H](C)N[P@](=O)(OC[C@H]1O[C@@H](n2cnc3sc4c(N)nc(N)nc4c32)[C@](C)(F)C1OC(=O)C(C)C)Oc1ccccc1 (stereo partly shown) [CEM-055]
pIC50 (SARS-CoV-2 (Omicron)): 4.71 | pIC50 (SARS-CoV-2 (WA-1) [3]): 4.92 | pEC50 (EBOV (VP30, Huh); Zaire ebolavirus): 5.21 | pEC50 (EBOV (VP30, Huh)): 5.00

CC(C)OC(=O)[C@H](C)N[P@](=O)(OC[C@H]1O[C@@H](n2cnc3sc4c(=O)[nH]cnc4c32)C(O)C1O)Oc1ccccc1 (stereo in doubt) [CEM-010]
pIC50 (CHIKV): 4.08 | CC50 (in vitro [4]): > 100 µM

CC(C)OC(=O)[C@H](C)N[P@](=O)(OC[C@H]1O[C@@H](n2cnc3sc(C(N)=O)c(N)c32)C(O)C1O)Oc1ccccc1 (stereo partly shown) [CEM-015]
pIC50 (CHIKV): 4.03

CCC(CC)COC(=O)[C@H](C)N[P@](=O)(OC[C@H]1O[C@@H](n2cnc3sc4c(N)nc(N)nc4c32)C(O)C1O)Oc1ccccc1 (stereo partly shown) [CEM-056]
pIC50 (SARS-CoV-2 (Omicron)): 4.23 | pIC50 (SARS-CoV-2 (WA-1) [3]): 4.35 | pEC50 (EBOV (VP30, Huh); Zaire ebolavirus): 4.66

COc1nc(OC)c2sc3ncn([C@@H]4O[C@H](CO)C(O)C4O)c3c2n1 (stereo partly drawn) [CEM-028, 1-[(5,7-dimethoxyimidazo-[4′,5′:4,5]thieno[3,2-d]pyrimidin-3-yl)]-β-D-ribofuranose-2,3,5-Triol]
pIC50 (EBOV (VP30, Huh); [11]): 4.32 | CC50 (in vitro [1]): 138 µM

Nc1nc2c(sc3ncn([C@@H]4O[C@H](CO)C(O)C4O)c32)c(=O)[nH]1 (stereo partly drawn) [CEM-021, 1-[(5-Aminoimidazo[4′,5′:4,5]thieno[3,2-d]pyrimidin-3-yl-7-one)]-β-D-ribofuranose 2,3,5-Triol]
pIC50 (DENV2): 4.13 | pIC50 (DENV4): 4.00 | pIC50 (EBOV (VP30, Huh); [11]): 4.36 | CC50 (in vitro [1]): 60.5 µM | CC50 [6]: > 100 µM

CC(C)OC(=O)[C@H](C)N[P@](=O)(OC[C@H]1O[C@@H](n2cnc3sc4c(N)nc(N)nc4c32)C(C)(F)C1OC(=O)C(C)C)Oc1ccccc1 (stereo partly shown) [CEM-054]
pIC50 (DENV2): 4.66 | pIC50 (DENV4): 5.00 | pIC50 (SARS-CoV-2 (Omicron)): 4.42 | pEC50 (EBOV (VP30, Huh); Zaire ebolavirus): 4.97 | pEC50 (EBOV (VP30, Huh)): 4.95 | CC50 [7]: 32 µM

CCC(CC)COC(=O)[C@H](C)N[P@](=O)(OC[C@H]1O[C@@H](n2cnc3sc4c(N)nc(N)nc4c32)C(C)(F)C1O)Oc1ccccc1 (stereo partly shown) [CEM-052]
pIC50 (DENV2): 4.72 | pIC50 (DENV4): 4.80 | pIC50 (SARS-CoV-2 (Omicron)): 4.69 | pEC50 (EBOV (VP30, Huh); Zaire ebolavirus): 5.04 | pEC50 (EBOV (VP30, Huh)): 4.94 | CC50 [7]: 33 µM

CC(C)OC(=O)[C@H](C)N[P@](=O)(OC[C@H]1O[C@@H](n2cnc3sc4c(N)ncnc4c32)C(O)C1O)Oc1ccccc1 (stereo partly shown) [CEM-012]
pIC50 (EBOV (VP30, Huh); [11]): 4.31 | CC50 (in vitro [1]): 17.7 µM

COc1nc(OC)c2sc3ncn([C@@H]4O[C@H](CO[P@@](=O)(N[C@@H](C)C(=O)OC(C)C)Oc5ccccc5)C(O)C4O)c3c2n1 (stereo partly shown) [CEM-036]
pIC50 (DENV2): 4.62 | pIC50 (DENV4): 4.47 | pIC50 (SARS-CoV-2 (Omicron)): < 4.00 | pIC50 (SARS-CoV-2 (WA-1) [2]): 4.66 | pIC50 (SARS-CoV-2 (WA-1) [3]): 4.32 | pIC50 (EBOV (VP30, Huh); [11]): 4.42 | CC50 [6]: > 100 µM | CC50 [8]: > 100 µM | CC50 [9]: > 100 µM

CCC(CC)COC(=O)[C@H](C)N[P@@](=O)(Oc1ccccc1)OC1[C@@H](CO[P@@](=O)(N[C@@H](C)C(=O)OCC(CC)CC)Oc2ccccc2)O[C@@H](n2cnc3sc4c(N)nc(N)nc4c32)C1(C)F (stereo partly shown) [CEM-053]
pIC50 (DENV2): 4.74 | pIC50 (DENV4): 5.54 | pIC50 (SARS-CoV-2 (Omicron)): 4.66 | pIC50 (SARS-CoV-2 (WA-1) [3]): 5.53 | pEC50 (EBOV (VP30, Huh); Zaire ebolavirus): 5.35 | pEC50 (EBOV (VP30, Huh)): 5.17 | CC50 [7]: > 50 µM
